Target: PDE9A (Homo sapiens (Human), UniProt O76083)
Assay: PDE9A inhibitory activity, fluorescence polarization assay (IMAP-FP screening express kit)
Assay type: biochemical
Details: enzyme PDE9A 5 ng/ml, Fl-cGMP substrate 100 nM, room temperature 1 hour
Procedure: The inhibitory activity of the representative compounds according to the present invention against phosphodiesterase 9A was tested based on the polarization assay (IMAP-FP screening express kit) provided by MDS (MDS Analytical Technologies, Sunyvale, CA, USA). As a buffer solution, a reaction solution (a reaction solution containing 0.01% Tween 20 provided by MDS was diluted 5 times, then 5 mM DTT is added) and a polarization detection solution (binding solution A and B provided by MDS were mixed at a ratio of 3:1 and IMAP binding reagent 1/600 was added) were prepared. 100 μM of the substrate (Fl-cGMP substrate; MDS) and 3.6 μg/ml of the enzyme PDE9A (ab54113; abeam) were prepared. 3.6 μg/ml PDE9A and 100 μM substrate were diluted to 20 ng/ml (final reaction concentration: 5 ng/ml) and 400 nM (final reaction concentration: 100 nM), respectively. The buffer solution used for all dilution and preparation processes was 1× reaction solution with 1 mM DTT added, and the polarization detection solution was used to induce polarization at the end.
The prepared samples were dispensed on black microplates (Multiwell 384 well plates, #3573, Corning Life Sciences, Lowell, MA, USA) using a 16-channel pipette (multi 16-channel, Finnpipette, Thermo Scientific, Essex, UK). The total reaction volume per well is 20 μl. At this time, 10 μl of 2% DMSO, 5 μl of substrate solution, and 5 μl of reaction solution were used as a negative control, and 10 μl of 2% DMSO, 5 μl of substrate solution, and 5 μl of PDE9A solution were used as a positive control. As the experimental group, 10 μl of the compound prepared in Example, 5 μl of the substrate solution, and 5 μl of the PDE9A solution were used. After pretreatment between the compound and the enzyme was performed for about […] before the enzyme-substrate reaction, 5 μl of cGMP was added to induce the enzyme reaction. During the reaction, each compound, enzyme, and substrate occupied 50%, 25%, and 25% of the total volume, respectively, and they were prepared at high concentrations of 2, 4, and 4 times, respectively, immediately before addition. After the enzymatic reaction, it was shaken lightly for 1 minute and the enzyme reaction was induced at room temperature for 1 hour. Then, 60 μl of a polarization detection solution prepared in advance was added to induce polarization.
Nanoparticles composed of trivalent metal ions are mixed in the fluorescence detection solution, which combines with phosphoric acid expose by enzymatic reaction to increase the molecular weight and induce polarization. After leaving for 2 hours at room temperature, the polarization (Fluorescence Polarization, FP) value was measured using a multilabel counter (Envision, PerkinElmer, Turku, Finland) (emission wavelength: P-535 nm, S-535 nm, excitation wavelength: 480 nm), and the result was expressed as an IC50 value, which is the concentration of the compound that inhibited PDE9A by 50% in vitro (Table 2).

Sequence of PDE9A (O76083 whole entry): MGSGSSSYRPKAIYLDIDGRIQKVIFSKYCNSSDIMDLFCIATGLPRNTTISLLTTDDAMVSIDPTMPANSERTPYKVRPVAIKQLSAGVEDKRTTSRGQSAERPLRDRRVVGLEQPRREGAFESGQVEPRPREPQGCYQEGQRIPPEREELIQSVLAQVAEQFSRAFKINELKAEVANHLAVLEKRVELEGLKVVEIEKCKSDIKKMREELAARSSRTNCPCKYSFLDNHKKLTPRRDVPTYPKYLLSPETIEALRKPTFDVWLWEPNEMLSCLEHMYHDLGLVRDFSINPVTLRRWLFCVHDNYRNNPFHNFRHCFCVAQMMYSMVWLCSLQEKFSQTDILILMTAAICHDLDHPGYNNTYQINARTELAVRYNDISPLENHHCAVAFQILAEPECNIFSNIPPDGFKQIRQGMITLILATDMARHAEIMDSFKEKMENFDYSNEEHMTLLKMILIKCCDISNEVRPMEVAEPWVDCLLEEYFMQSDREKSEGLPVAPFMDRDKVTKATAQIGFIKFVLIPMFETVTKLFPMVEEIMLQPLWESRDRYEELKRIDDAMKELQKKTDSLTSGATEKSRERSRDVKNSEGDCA

SMILES	IC50 [nM]
CCSc1nnc(NC(=O)CSc2nc3c(cnn3-c3ccc(F)cc3)c(=O)[nH]2)s1 [Example 16, N-(5-(ethylthio)-1,3,4-thiadiazol-2-yl)-2-((1-(4-fluorophenyl)-4-oxo-4,5-dihydro-1H-pyrazolo[3,4-d]pyrimidin-6-yl)thio)acetamide]	27
O=C(CSc1nc2c(cnn2C2CCCCC2)c(=O)[nH]1)Nc1nnc(Br)s1 [Example 35, N-(5-bromo-1,3,4-thiadiazol-2-yl)-2-((4-oxo-1-cyclohexyl-4,5-dihydro-1H-pyrazolo[3,4-d]pyrimidin-6-yl)thio)acetamide]	1
O=C(CSc1nc2c(cnn2C2CCC(F)(F)CC2)c(=O)[nH]1)Nc1nnc(Cl)s1 [Example 1, 2-((1-(4,4-difluorocyclohexyl)-4-oxo-4,5-dihydro-1H-pyrazolo[3,4-d]pyrimidin-6-yl)thio)-N-(5-chloro-1,3,4-thiadiazol-2-yl)acetamide]	0.4
Cc1ccc(-c2nnc(NC(=O)C(C)Sc3nc4c(cnn4-c4ccccc4)c(=O)[nH]3)s2)cc1 (stereo not shown) [Example 20, 2-((4-oxo-1-phenyl-4,5-dihydro-1H-pyrazolo[3,4-d]pyrimidin-6-yl)thio)-N-(5-(p-tolyl)-1,3,4-thiadiazol-2-yl)propanamide]	19
CCSc1nnc(NC(=O)C(C)Sc2nc3c(cnn3C3CCOCC3)c(=O)[nH]2)s1 (stereo not shown) [Example 45, N-(5-(ethylthio)-1,3,4-thiadiazol-2-yl)-2-((4-oxo-1-(tetrahydro-2H-pyran-4-yl)-4,5-dihydro-1H-pyrazolo[3,4-d]pyrimidin-6-yl)thio)propanamide]	0.1
O=C(CSc1nc2c(cnn2C2CCSCC2)c(=O)[nH]1)Nc1nnc(Br)s1 [Example 32, N-(5-bromo-1,3,4-thiadiazol-2-yl)-2-((4-oxo-1-(tetrahydro-2H-thiopyran-4-yl)-4,5-dihydro-1H-pyrazolo[3,4-d]pyrimidin-6-yl)thio)acetamide]	0.6
CC(Sc1nc2c(cnn2C2CCOCC2)c(=O)[nH]1)C(=O)Nc1nnc(Br)s1 (stereo not shown) [Example 46, N-(5-bromo-1,3,4-thiadiazol-2-yl)-2-((4-oxo-1-(tetrahydro-2H-pyran-4-yl)-4,5-dihydro-1H-pyrazolo[3,4-d]pyrimidin-6-yl)thio)propanamide]	0.2
CCSc1nnc(NC(=O)CSc2nc3c(cnn3C3CCC(F)(F)CC3)c(=O)[nH]2)s1 [Example 19, 2-((1-(4,4-difluorocyclohexyl)-4-oxo-4,5-dihydro-1H-pyrazolo[3,4-d]pyrimidine-6-yl)thio)-N-(5-(ethylthio)-1,3,4-thiadiazol-2-yl)acetamide]	0.6
CCSc1nnc(NC(=O)CSc2nc3c(cnn3C(C)C)c(=O)[nH]2)s1 [Example 37, N-(5-(ethylthio)-1,3,4-thiadiazol-2-yl)-2-((1-isopropyl-4-oxo-4,5-dihydro-1H-pyrazolo[3,4-d]pyrimidin-6-yl)thio)acetamide]	1
CC(Sc1nc2c(cnn2C2CCC(F)(F)CC2)c(=O)[nH]1)C(=O)Nc1nnc(Br)s1 (stereo not shown) [Example 31, 2-((1-(4,4-difluorocyclohexyl)-4-oxo-4,5-dihydro-1H-pyrazolo[3,4-d]pyrimidin-6-yl)thio)-N-(5-bromo-1,3,4-thiadiazol-2-yl)propanamide]	0.1
O=C(CSc1nc2c(cnn2C2CCOCC2)c(=O)[nH]1)Nc1nnc(Br)s1 [Example 33, N-(5-bromo-1,3,4-thiadiazol-2-yl)-2-((4-oxo-1-(tetrahydro-2H-pyran-4-yl)-4,5-dihydro-1H-pyrazolo[3,4-d]pyrimidin-6-yl)thio)acetamide]	0.4
O=C(CSc1nc2c(cnn2C2CC2)c(=O)[nH]1)Nc1nnc(Br)s1 [Example 41, N-(5-bromo-1,3,4-thiadiazol-2-yl)-2-((1-cyclopropyl-4-oxo-4,5-dihydro-1H-pyrazolo[3,4-d]pyrimidin-6-yl)thio)acetamide]	28
CCSc1nnc(NC(=O)C(Sc2nc3c(cnn3-c3ccccc3)c(=O)[nH]2)c2ccccc2)s1 (stereo not shown) [Example 26, N-(5-(ethylthio)-1,3,4-thiadiazol-2-yl)-2-((4-oxo-1-phenyl-4,5-dihydro-1H-pyrazolo[3,4-d]pyrimidin-6-yl)thio)-2-phenylacetamide]	9

Second part, the compound after the results:

IC50 [nM]	SMILES
150	Cc1nnc(NC(=O)C(C)Sc2nc3c(cnn3-c3ccccc3)c(=O)[nH]2)s1 (stereo not shown) [Example 10, N-(5-methyl-1,3,4-thiadiazol-2-yl)-2-((4-oxo-1-phenyl-4,5-dihydro-1H-pyrazolo[3,4-d]pyrimidin-6-yl)thio)propanamide]
230	O=C(CSc1nc2c(cnn2-c2ccccc2)c(=O)[nH]1)Nc1nncs1 [Example 4, 2-((4-oxo-1-phenyl-4,5-dihydro-1H-pyrazolo[3,4-d]pyrimidin-6-yl)thio)-N-(1,3,4-thiadiazol-2-yl)acetamide]
18	O=C(CSc1nc2c(cnn2-c2ccccc2)c(=O)[nH]1)Nc1nnc(Cl)s1 [Example 30, N-(5-chloro-1,3,4-thiadiazol-2-yl)-2-((4-oxo-1-phenyl-4,5-dihydro-1H-pyrazolo[3,4-d]pyrimidin-6-yl)thio)acetamide]
100	CC(C)(C)c1nnc(NC(=O)CSc2nc3c(cnn3-c3ccccc3)c(=O)[nH]2)s1 [Example 22, N-(5-(tertiary-butyl)-1,3,4-thiadiazol-2-yl)-2-((4-oxo-1-phenyl-4,5-dihydro-1H-pyrazolo[3,4-d]pyrimidin-6-yl)thio)acetamide]
41	Cc1ccc(-c2nnc(NC(=O)CSc3nc4c(cnn4-c4ccccc4)c(=O)[nH]3)s2)cc1 [Example 24, 2-((4-oxo-1-phenyl-4,5-dihydro-1H-pyrazolo[3,4-d]pyrimidin-6-yl)thio)-N-(5-(p-tolyl)-1,3,4-thiadiazol-2-yl)acetamide]
27	O=C(CSc1nc2c(cnn2-c2ccc(F)cc2)c(=O)[nH]1)Nc1nnc(Br)s1 [Example 17, N-(5-bromo-1,3,4-thiadiazol-2-yl)-2-((1-(4-fluorophenyl)-4-oxo-4,5-dihydro-1H-pyrazolo[3,4-d]pyrimidin-6-yl)thio)acetamide]
470	CCSc1nnc(N(C)C(=O)CSc2nc3c(cnn3-c3ccccc3)c(=O)[nH]2)s1 [Example 18, N-(5-(ethylthio)-1,3,4-thiadiazol-2-yl)-N-methyl-2-((4-oxo-1-phenyl-4,5-dihydro-1H-pyrazolo[3,4-d]pyrimidin-6-yl)thio)acetamide]
14	O=C(CSc1nc2c(cnn2-c2ccccc2)c(=O)[nH]1)Nc1nnc(SCc2ccccc2)s1 [Example 6]
7	CC(Sc1nc2c(cnn2-c2ccccc2)c(=O)[nH]1)C(=O)Nc1nnc(Br)s1 (stereo not shown) [Example 12, N-(5-bromo-1,3,4-thiadiazol-2-yl)-2-((4-oxo-1-phenyl-4,5-dihydro-1H-pyrazolo[3,4-d]pyrimidin-6-yl)thio)propanamide]
340	Cc1nnc(NC(=O)CSc2nc3c(cnn3-c3ccccc3)c(=O)[nH]2)s1 [Example 3, N-(5-methyl-1,3,4-thiadiazol-2-yl)-2-((4-oxo-1-phenyl-4,5-dihydro-1H-pyrazolo[3,4-d]pyrimidin-6-yl)thio)acetamide]
12	O=C(CSc1nc2c(cnn2-c2ccccc2)c(=O)[nH]1)Nc1nnc(Br)s1 [Example 7, N-(5-bromo-1,3,4-thiadiazol-2-yl)-2-((4-oxo-1-phenyl-4,5-dihydro-1H-pyrazolo[3,4-d]pyrimidin-6-yl)thio)acetamide]
19	O=C(CSc1nc2c(cnn2-c2ccccc2)c(=O)[nH]1)Nc1nnc(SCc2ccc(Cl)cc2)s1 [Example 8]
